Key:
[1] = biological target: cSrc (Homo sapiens (Human), UniProt P12931); test: c-Src enzyme inhibition (FRET, Z-LYTE); assay type: biochemical
Procedure, shortened: (§1)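 Z-LYTE FRET kinase assay: enzyme (3000 or 2000 ng/mL stock, respectively) preincubated 2 h at RT with compound (4–0.004 μg/mL stocks), then FRET peptide plus ATP (800 μM stock for c-Src, 60 μM for Syk) added for 1 h. Protease development 1 h; phosphorylation from coumarin/fluorescein emission ratio.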

[2] = biological target: p38 MAPKα (Homo sapiens (Human), UniProt Q16539); test: p38 MAPKα enzyme inhibition (FRET, Z-LYTE); assay type: biochemical
Sequence of p38 MAPKα (Q16539 whole entry): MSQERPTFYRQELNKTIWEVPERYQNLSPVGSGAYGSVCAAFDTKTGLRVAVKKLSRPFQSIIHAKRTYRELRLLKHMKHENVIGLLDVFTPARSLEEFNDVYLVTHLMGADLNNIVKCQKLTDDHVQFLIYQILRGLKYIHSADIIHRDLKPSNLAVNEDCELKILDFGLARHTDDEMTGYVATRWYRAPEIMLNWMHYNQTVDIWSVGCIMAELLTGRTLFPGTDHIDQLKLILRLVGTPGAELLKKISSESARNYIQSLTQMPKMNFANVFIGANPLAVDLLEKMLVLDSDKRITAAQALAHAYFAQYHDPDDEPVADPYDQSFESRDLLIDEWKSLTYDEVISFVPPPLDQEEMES

[3] = tested on: LPS-induced TNFα release in d-U937 cells; test: LPS-induced TNFα release in d-U937 cells; assay type: cell-based; conditions: Homo sapiens, dU937, relative to 10 μg/mL BIRB796, read-out: LPS Induced Release of Cytokine in d-937 Cells TNFα REC50
Procedure, shortened: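 Sandwich ELISA of culture supernatant gives TNFα and IL-8 levels after a 4 hr challenge with LPS (0.1 μg/mL, E. coli O111:B4). Before stimulation, macrophage-like U937 cells, obtained by 48–72 hr in PMA at 100 ng/mL, sit with compound for 2 hr. Relative EC50 is derived from concentration-response data.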

[4] = biological target: Syk (Homo sapiens (Human), UniProt P43405); test: Syk enzyme inhibition (FRET, Z-LYTE); assay type: biochemical
Procedure, shortened: as §1

[5] = tested on: d-U937 cells; test: Cell viability: MTT assay; assay type: cell-based, human; conditions: 1 μg/mL
Procedure, shortened: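 Differentiated U937 cells were exposed to compound at 1 or 10 μg/mL either 4 h in 5% FCS RPMI1640 or 24 h in 10% FCS RPMI1640, then given MTT for 1 h, DMSO-solubilised and read at 550 nm. Percent viability loss versus 0.5% DMSO vehicle; apparent gains appear negative.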

[6] = tested on: Poly I:C-induced ICAM-1 expression in BEAS2B cells; test: Poly I:C-induced ICAM-1 expression in BEAS2B cells; assay type: cell-based; conditions: Homo sapiens, BEAS-2B, read-out: Poly IC induced ICAM1 in BEAS2B IC50
Procedure, shortened: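 BEAS2B human bronchial epithelial cells pre-incubated with compound for 2 hr, then transfected with 1 μg/mL poly I:C plus Oligofectamine. At 18 hr, surface ICAM-1 measured by cell-based ELISA (HRP, OD450–655). Signal corrected for cell number by crystal violet OD595.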

[7] = tested on: LPS-induced IL-8 release in d-U937 cells; test: LPS-induced IL-8 release in d-U937 cells; assay type: cell-based; conditions: Homo sapiens, dU937, read-out: LPS Induced Release of Cytokine in d-937 Cells IL-8 IC50
Procedure, shortened: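 First, U937 monocytes undergo PMA treatment (100 ng/mL) for 48 to 72 hr to become macrophage-type. Next, compound at final concentrations is added for 2 hr, followed by LPS at 0.1 μg/mL for 4 hr. Finally, cytokines in the supernatant are quantified by ELISA against vehicle-treated cells.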

[8] = biological target: GSK3α (Homo sapiens (Human), UniProt P49840); test: GSK 3α enzyme inhibition (FRET, Z-LYTE); assay type: biochemical
Sequence of GSK3α (P49840 whole entry): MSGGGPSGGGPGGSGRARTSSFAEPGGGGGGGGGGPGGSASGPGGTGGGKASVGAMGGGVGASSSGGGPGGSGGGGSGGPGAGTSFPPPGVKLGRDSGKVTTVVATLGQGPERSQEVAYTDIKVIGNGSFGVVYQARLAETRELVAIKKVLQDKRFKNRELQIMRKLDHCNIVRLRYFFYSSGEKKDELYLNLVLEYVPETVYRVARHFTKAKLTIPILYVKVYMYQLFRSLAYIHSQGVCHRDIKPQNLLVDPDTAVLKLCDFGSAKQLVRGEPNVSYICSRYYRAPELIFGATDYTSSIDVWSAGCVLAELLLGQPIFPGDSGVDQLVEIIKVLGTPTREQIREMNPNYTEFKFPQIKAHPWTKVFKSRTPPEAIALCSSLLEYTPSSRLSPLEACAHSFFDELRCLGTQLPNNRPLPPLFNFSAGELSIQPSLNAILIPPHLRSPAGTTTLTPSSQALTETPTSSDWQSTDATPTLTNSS
Procedure, shortened: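 GSK3α (500 ng/mL stock) was preincubated 2 hr at RT with compound (4 to 0.004 μg/mL stocks), then FRET peptide (8 μM stock) and ATP (40 μM stock) added for 1 hr. Protease development for 1 hr cleaved unphosphorylated peptide; coumarin/fluorescein emission ratio reported phosphorylation.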

Sequence of cSrc (P12931 whole entry, looked up): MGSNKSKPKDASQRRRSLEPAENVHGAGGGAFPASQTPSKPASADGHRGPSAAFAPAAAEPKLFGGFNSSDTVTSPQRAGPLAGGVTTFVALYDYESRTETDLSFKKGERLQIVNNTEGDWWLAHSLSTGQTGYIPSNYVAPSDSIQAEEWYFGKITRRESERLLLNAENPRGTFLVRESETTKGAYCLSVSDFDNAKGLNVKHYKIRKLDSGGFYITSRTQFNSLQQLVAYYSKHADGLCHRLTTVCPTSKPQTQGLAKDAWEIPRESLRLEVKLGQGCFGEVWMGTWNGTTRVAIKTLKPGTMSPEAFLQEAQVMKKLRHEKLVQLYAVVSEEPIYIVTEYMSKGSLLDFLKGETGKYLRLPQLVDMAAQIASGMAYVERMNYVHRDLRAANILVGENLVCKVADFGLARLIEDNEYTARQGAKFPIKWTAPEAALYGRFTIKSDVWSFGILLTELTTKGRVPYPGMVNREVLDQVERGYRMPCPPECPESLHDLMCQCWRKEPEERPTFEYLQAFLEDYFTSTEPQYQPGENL

| Structure (SMILES) | IC50 [1] | IC50 [2] | EC50 [3] | IC50 [4] | IC50 [7] | IC50 [8] | MTT Assay Cell viability at time point in d-U937 cells 4 h [5] | MTT Assay Cell viability at time point in d-U937 cells 24 h [5] | IC50 [6] |
| --- | --- | --- | --- | --- | --- | --- | --- | --- | --- |
| CC(C)(C)c1cc(NC(=O)Nc2ccc(Oc3ccnc(Nc4ccc5[nH]nnc5c4)n3)c3ccccc23)n(-c2ccc(OCCN3CCOCC3)cc2)n1 [Example 81, 1-(4-((2-((1H-benzo[d][1,2,3]triazol-5-yl)amino)pyrimidin-4-yl)oxy)naphthalen-1-yl)-3-(3-(tert-butyl)-1-(4-(2-morpholinoethoxy)phenyl)-1H-pyrazol-5-yl)urea] | 0.005 µM | 0.066 µM | 0.0014 µM | 0.014 µM | 0.0016 µM | 0.641 µM | −ve (−ve and +ve indicate that the value is below and above respectively, the no significant effect threshold, defined as 30% inhibition at 1 μg/mL at the time point indicated.) | −ve (−ve and +ve indicate that the value is below and above respectively, the no significant effect threshold, defined as 30% inhibition at 1 μg/mL at the time point indicated.) | 0.01 µM |
| CC(C)c1cc(NC(=O)Nc2ccc(Oc3cc(Nc4ccc5[nH]ncc5c4)ncn3)c3ccccc23)n(-c2ccc(=O)n(CCO)c2)n1 [Example 84, 1-(4-((6-((1H-indazol-5-yl)amino)pyrimidin-4-yl)oxy)naphthalen-1-yl)-3-(1-(1-(2-hydroxyethyl)-6-oxo-1,6-dihydropyridin-3-yl)-3-isopropyl-1H-pyrazol-5-yl)urea] | 0.003 µM | < 0.0015 µM | 0.147 µM | 0.012 µM | 0.217 µM | 0.278 µM | −ve (−ve and +ve indicate that the value is below and above respectively, the no significant effect threshold, defined as 30% inhibition at 1 μg/mL at the time point indicated.) | −ve (−ve and +ve indicate that the value is below and above respectively, the no significant effect threshold, defined as 30% inhibition at 1 μg/mL at the time point indicated.) | > 0.152 µM |
| Cc1cc(Nc2nccc(Oc3ccc(NC(=O)Nc4cc(C(C)(C)C)nn4-c4ccc(=O)n(CCO)c4)c4ccccc34)n2)cc2cn[nH]c12 [Example 87, 1-(3-(tert-butyl)-1-(1-(2-hydroxyethyl)-6-oxo-1,6-dihydropyridin-3-yl)-1H-pyrazol-5-yl)-3-(4-((2-((7-methyl-1H-indazol-5-yl)amino)pyrimidin-4-yl)oxy)naphthalen-1-yl)urea] | 0.002 µM | 0.045 µM | 0.0017 µM | 0.004 µM | 0.0023 µM | 1.1 µM | −ve (−ve and +ve indicate that the value is below and above respectively, the no significant effect threshold, defined as 30% inhibition at 1 μg/mL at the time point indicated.) | −ve (−ve and +ve indicate that the value is below and above respectively, the no significant effect threshold, defined as 30% inhibition at 1 μg/mL at the time point indicated.) | 0.001 µM |
| CC(C)(C)c1cc(NC(=O)Nc2ccc(Oc3ccnc(Nc4ccc5c(cnn5CCN5CCOCC5)c4)n3)c3ccccc23)n(-c2ccc(OCCN3CCOCC3)nc2)n1 [Example 92, 1-(3-(tert-butyl)-1-(6-(2-morpholinoethoxy)pyridin-3-yl)-1H-pyrazol-5-yl)-3-(4-((2-((1-(2-morpholinoethyl)-1H-indazol-5-yl)amino)pyrimidin-4-yl)oxy)naphthalen-1-yl)urea] | < 0.001 µM | 0.005 µM | 0.0015 µM | < 0.001 µM | 0.0115 µM | 0.569 µM | −ve (−ve and +ve indicate that the value is below and above respectively, the no significant effect threshold, defined as 30% inhibition at 1 μg/mL at the time point indicated.) | −ve (−ve and +ve indicate that the value is below and above respectively, the no significant effect threshold, defined as 30% inhibition at 1 μg/mL at the time point indicated.) | 0.0053 µM |

Continued, in another order:

| IC50 [1] | IC50 [2] | EC50 [3] | IC50 [4] | IC50 [7] | IC50 [8] | Structure (SMILES) | MTT Assay Cell viability at time point in d-U937 cells 4 h [5] | MTT Assay Cell viability at time point in d-U937 cells 24 h [5] | IC50 [6] |
| --- | --- | --- | --- | --- | --- | --- | --- | --- | --- |
| 0.01 µM | 0.063 µM | 0.0018 µM | 0.026 µM | 0.0024 µM | > 1.56 µM | COc1ccc(-n2nc(C(C)(C)C)cc2NC(=O)Nc2ccc(Oc3ccnc(Nc4ccc5[nH]ccc5c4)n3)c3ccccc23)cn1 [Example 82, 1-(4-((2-((1H-indol-5-yl)amino)pyrimidin-4-yl)oxy)naphthalen-1-yl)-3-(3-(tert-butyl)-1-(6-methoxypyridin-3-yl)-1H-pyrazol-5-yl)urea] | −ve (−ve and +ve indicate that the value is below and above respectively, the no significant effect threshold, defined as 30% inhibition at 1 μg/mL at the time point indicated.) | −ve (−ve and +ve indicate that the value is below and above respectively, the no significant effect threshold, defined as 30% inhibition at 1 μg/mL at the time point indicated.) | 0.0027 µM |
| 0.107 µM | 0.01 µM | 0.0007 µM | 0.063 µM | 0.0087 µM | 3.78 µM | COc1ccc(-n2nc(C(C)(C)C)cc2NC(=O)Nc2ccc(Oc3ccnc(Nc4ccc5[nH]nc(C(=O)N6CCOCC6)c5c4)n3)c3ccccc23)cn1 [Example 83, 1-(3-(tert-butyl)-1-(6-methoxypyridin-3-yl)-1H-pyrazol-5-yl)-3-(4-((2-((3-(morpholine-4-carbonyl)-1H-indazol-5-yl)amino)pyrimidin-4-yl)oxy)naphthalen-1-yl)urea] | −ve (−ve and +ve indicate that the value is below and above respectively, the no significant effect threshold, defined as 30% inhibition at 1 μg/mL at the time point indicated.) | −ve (−ve and +ve indicate that the value is below and above respectively, the no significant effect threshold, defined as 30% inhibition at 1 μg/mL at the time point indicated.) | 0.0029 µM |
| < 0.002 µM | 0.008 µM | 0.0197 µM | 0.015 µM | 0.0544 µM | 2.53 µM | CC(C)c1cc(NC(=O)Nc2ccc(Oc3ccnc(Nc4ccc5[nH]ncc5c4)n3)c3ccccc23)n(-c2ccc(=O)n(CCO)c2)n1 [Example 85, 1-(4-((2-((1H-indazol-5-yl)amino)pyrimidin-4-yl)oxy)naphthalen-1-yl)-3-(1-(1-(2-hydroxyethyl)-6-oxo-1,6-dihydropyridin-3-yl)-3-isopropyl-1H-pyrazol-5-yl)urea] | −ve (−ve and +ve indicate that the value is below and above respectively, the no significant effect threshold, defined as 30% inhibition at 1 μg/mL at the time point indicated.) | −ve (−ve and +ve indicate that the value is below and above respectively, the no significant effect threshold, defined as 30% inhibition at 1 μg/mL at the time point indicated.) | 0.0702 µM |
| < 0.001 µM | 0.007 µM | 0.0022 µM | 0.016 µM | 0.0041 µM | 0.827 µM | CC(C)(C)c1cc(NC(=O)Nc2ccc(Oc3ccnc(Nc4ccc5[nH]ncc5c4)n3)c3ccccc23)n(-c2ccc(=O)n(CCO)c2)n1 [Example 86, 1-(4-((2-((1H-indazol-5-yl)amino)pyrimidin-4-yl)oxy)naphthalen-1-yl)-3-(3-(tert-butyl)-1-(1-(2-hydroxyethyl)-6-oxo-1,6-dihydropyridin-3-yl)-1H-pyrazol-5-yl)urea] | −ve (−ve and +ve indicate that the value is below and above respectively, the no significant effect threshold, defined as 30% inhibition at 1 μg/mL at the time point indicated.) | −ve (−ve and +ve indicate that the value is below and above respectively, the no significant effect threshold, defined as 30% inhibition at 1 μg/mL at the time point indicated.) | 0.0083 µM |

From patent publication US9249125B2, “Pyrazole derivatives as p38 MAP inhibitors” (RESPIVERT LIMITED, priority 2012, dated 2016)
